Data published in patent publication US20170305857A1, “N-ACYLPIPERIDINE ETHER TROPOMYOSIN-RELATED KINASE INHIBITORS” (Pfizer Limited, priority 2014, published 2017).

Biological target: T1, recombinant His-tagged cytoplasmic domains of TRKA receptor (NTRK1, PV3144, aa 441-796) (Homo sapiens, UniProt P04629)
T1 construct: aa 441-796; His; purchased Invitrogen PV3144
Experiment: Isolated TRK enzyme assay (HTRF KinEASE-TK, PV3144 TrkA enzyme assay)
Type: biochemical
Conditions: 4 nM enzyme, 40 uM ATP, 35 min, arithmetic mean where more than one reading
Outline: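 Enzyme and ATP were preincubated with compound for 20 min at room temperature in buffer with 10 mM MgCl and 2 mM DTT. TK-substrate-Biotin was then added (1 uM final) and the reaction run for an enzyme-specific optimized time. Phosphorylation was read by HTRF, and IC50 values came from sigmoid fits of percent inhibition normalized to plate controls, averaged over replicate readings.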

T1 sequence (P04629 441-796): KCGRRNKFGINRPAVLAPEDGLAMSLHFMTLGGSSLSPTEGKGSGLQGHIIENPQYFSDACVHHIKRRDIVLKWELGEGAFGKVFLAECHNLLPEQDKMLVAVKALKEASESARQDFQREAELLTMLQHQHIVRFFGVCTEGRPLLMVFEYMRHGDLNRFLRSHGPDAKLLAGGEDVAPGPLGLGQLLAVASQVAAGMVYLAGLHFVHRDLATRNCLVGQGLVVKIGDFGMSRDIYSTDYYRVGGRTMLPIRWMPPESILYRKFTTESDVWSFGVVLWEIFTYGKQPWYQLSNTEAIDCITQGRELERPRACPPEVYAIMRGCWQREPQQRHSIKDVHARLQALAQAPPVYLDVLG

Row | SMILES | IC50
1 | Cn1cnc(-c2ccc(O[C@@H]3CCN(C(=O)Cc4ccc(OC(F)(F)F)cc4)C[C@H]3F)c(C(N)=O)c2)c1 (single isomer, unassigned) [Example 112] | 6.4 nM
2 | NC(=O)c1cc(-c2cn[nH]c2)ccc1O[C@H]1CCN(C(=O)Cc2ccc(OC3CC3)cn2)C[C@@H]1F [Example 84, 2-{[(3S,4S)-1-{[5-(cyclopropyloxy)pyridin-2-yl]acetyl}-3-fluoropiperidin-4-yl]oxy}-5-(1H-pyrazol-4-yl)benzamide] | 4.4 nM
3 | NC(=O)c1cc(-c2c[nH]cn2)ccc1OC1CCN(C(=O)Cc2ccc(OC(F)(F)F)cc2)CC1 [Example 127, 5-(1H-imidazol-4-yl)-2-[(1-{[4-(trifluoromethoxy)phenyl]acetyl}piperidin-4-yl)oxy]benzamide] | 5.5 nM
4 | CC(C)(N)c1ccc(-c2ccc(OC3CCN(C(=O)Cc4ccc(OC(F)(F)F)cc4)CC3)c(C(N)=O)c2)cc1 [Example 65, 4'-(2-aminopropan-2-yl)-4-[(1-{[4-(trifluoromethoxy)phenyl]acetyl}piperidin-4-yl)oxy]biphenyl-3-carboxamide] | 3.5 nM
5 | CC(C)(O)Cn1cc(-c2ccc(O[C@H]3CCN(C(=O)Cc4ccc(OC5CC5)cn4)C[C@@H]3F)c(C(N)=O)c2)cn1 [Example 34, 2-{[(3S,4S)-1-{[5-(cyclopropyloxy)pyridin-2-yl]acetyl}-3-fluoropiperidin-4-yl]oxy}-5-[1-(2-hydroxy-2-methylpropyl)-1H-pyrazol-4-yl]benzamide] | 7.7 nM
6 | Cn1cc(-c2cc(C(N)=O)c(O[C@@H]3CCN(C(=O)Cc4ccc(OC(F)(F)F)cc4)C[C@@H]3F)nn2)cn1 [Example 157, 3-{[(3S,4R)-3-fluoro-1-{[4-(trifluoromethoxy)phenyl]acetyl}piperidin-4-yl]oxy}-6-(1-methyl-1H-pyrazol-4-yl)pyridazine-4-carboxamide] | 7.24 nM
7 | CS(=O)(=O)Cn1cc(-c2cnc(O[C@@H]3CCN(C(=O)Cc4ccc(OC(F)(F)F)c(F)c4)C[C@@H]3F)c(C(N)=O)c2)cn1 [Example 24, 2-{[(3S,4R)-3-fluoro-1-{[3-fluoro-4-(trifluoromethoxy)phenyl]acetyl}pipertdin-4-yl]oxy}-5-{1-[(methylsulfonyl)methyl]-1H-pyrazol-4-yl}pyridine-3-carboxamide] | 2.9 nM
8 | Cn1cnc(-c2ccc(O[C@H]3CCN(C(=O)Cc4ccc(OC(F)(F)F)cc4)C[C@@H]3F)c(C(N)=O)c2)c1 (single isomer, unassigned) [Example 8] | 1.5 nM
9 | NC(=O)c1cc(-c2cn[nH]c2)cnc1O[C@@H]1CCN(C(=O)Cc2ccc(OC3CC3)cn2)C[C@@H]1F [Example 78, 2-{[(3S,4R)-1-{[5-(cyclopropyloxy)pyridin-2-yl]acetyl}-3-fluoropiperidin-4-yl]oxy}-5-(1H-pyrazol-4-yl)pyridine-3-carboxamide] | 2.6 nM
10 | Cc1nn(C[C@H](O)CO)c(C)c1-c1ccc(OC2CCN(C(=O)Cc3ccc(OC(F)(F)F)cc3)CC2)c(C(N)=O)c1 [Example 124] | 7.4 nM
